{
  "source": "ChEMBL document CHEMBL1146099",
  "about": "“Anthranilic acid based CCK1 receptor antagonists and CCK-8 have a common step in their \"receptor desmodynamic processes\"” (J Med Chem, 2006)",
  "data": [
    {"biological_target": "T1, Cholecystokinin receptor type A (Homo sapiens, UniProt P32238)", "T1 sequence (P32238 whole entry)": "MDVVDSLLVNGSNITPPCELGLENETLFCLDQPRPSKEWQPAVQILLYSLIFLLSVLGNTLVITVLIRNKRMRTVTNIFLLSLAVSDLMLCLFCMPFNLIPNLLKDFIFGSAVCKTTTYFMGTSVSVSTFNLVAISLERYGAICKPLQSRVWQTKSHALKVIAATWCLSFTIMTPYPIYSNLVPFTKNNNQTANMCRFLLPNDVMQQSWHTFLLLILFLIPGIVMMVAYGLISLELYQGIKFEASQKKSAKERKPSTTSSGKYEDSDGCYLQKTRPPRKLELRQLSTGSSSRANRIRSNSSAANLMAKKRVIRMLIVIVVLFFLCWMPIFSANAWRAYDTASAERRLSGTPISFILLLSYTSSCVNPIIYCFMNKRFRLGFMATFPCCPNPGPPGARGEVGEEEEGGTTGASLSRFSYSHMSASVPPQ", "assay": "Displacement of [111In]DTPA-Glu-Gly-[Tyr27(SO3H)]-CCK8 from human CCK1 receptor in A431 cells", "assay_type": "cell-based, A-431", "units": {"IC50": "nM"}, "values": [
      {"smiles": "O=C(/C=C/c1ccccc1)Nc1ccccc1C(=O)NC(Cc1ccccc1)C(=O)O", "note": "(racemic)", "IC50": 4000},
      {"smiles": "CC(NC(=O)c1ccccc1NC(=O)c1cc2ccccc2[nH]1)C(=O)O", "note": "(racemic)", "IC50": 2800},
      {"smiles": "CC(=O)N/C(=C/c1ccccc1)C(=O)Nc1ccccc1C(=O)NC(Cc1ccccc1)C(=O)O", "note": "(racemic)", "IC50": 12700},
      {"smiles": "CCCCCN(CCCOC)C(=O)C(CCC(=O)O)NC(=O)c1ccc(Cl)c(Cl)c1", "note": "(stereo not given) [LOXIGLUMIDE]", "IC50": 195},
      {"smiles": "O=C(Nc1ccccc1C(=O)NC(Cc1ccccc1)C(=O)O)c1cc2ccccc2[nH]1", "note": "(racemic)", "IC50": 197}
    ]}
  ]
}
